This note sets out measurements from patent US20180185374A1, “INHIBITORS OF MTOR KINASE AS ANTI-VIRAL AGENTS” (THE TRUSTEES OF PRINCETON UNIVERSITY, priority 2009, published 2018).

SMILES strings stand for the structures.

Test [1] concerns HCMV. As to the kind of experiment: Western blot of HCMV proteins (IE1, pUL44, pUL99) in infected fibroblasts. It is filed as cell-based, human cytomegalovirus. The settings on record: 6 to 96 hpi; rapamycin 20 nM, Torin1 250 nM; 3 PFU/cell. Here is the method:
FIG. 2. […] Serum-starved confluent fibroblasts were infected with HCMV at a multiplicity of 3 PFU/cell. […] Control cultures received the vehicle in which Torin1 was dissolved (NT). At 2 hpi cells were harvested, and cell-associated viral DNA was quantified by real-time PCR analysis. Error bars represent the standard errors of the means from two independent experiments performed in duplicate. […] The level of IE1 was determined at 6 hpi by a Western blot assay using an IE1-specific monoclonal antibody. The image is representative of two independent experiments. […] The expression of a GFP marker gene present in the viral genome was monitored at 24 h after infection in the presence or absence of drug.
FIG. 3. […] (A) Rapamycin-resistant mTOR activity is required for the accumulation of an some but not all HCMV proteins. […] Cells were harvested at the indicated times, and the accumulation of the indicated proteins was analyzed by Western blotting. […] At the indicated times DNA was isolated, and viral DNA was quantified by qPCR. Equivalent amounts of DNA were analyzed for each sample, and the results are normalized to the level of actin DNA per sample. […] At the indicated times the amount of UL99 RNA was determined by qPCR, and the results are normalized to the amount of actin RNA in each sample.
Cells were lysed in radioimmunoprecipitation assay (RIPA) buffer (50 mM Tris-HCl [pH 7.4], […], 0.25% sodium deoxycholate, 150 mM NaCl, 1 mM EDTA) containing protease inhibitors (complete EDTA free; Roche). Protein concentrations in each lysate were determined by the Bradford assay. 30 μg of protein was analyzed per sample. Proteins in cell lysates were resolved on SDS-containing 10% polyacrylamide gels. Proteins were transferred onto Protran membranes by using a semidry transfer apparatus. […]
Antibodies to pUL99 have been described previously (Silva, et al. J. Virol. (2003) 77:10594-10605). In addition, accumulation of HCMV DNA was monitored following infection using the methods described above.
On the technique in general: Immunoblotting shows a protein as a band on a membrane.

Test [2] deals with rpS6. As to the kind of experiment: rpS6 phosphorylation in HCMV-infected fibroblasts, Western blot. It is filed as cell-based, human. As to conditions: rapamycin 20 nM, Torin1 250 nM; 3 PFU/cell. On the procedure: FIG. 4. Rapamycin-resistant mTOR activity is required for 4EBP1 phosphorylation and eIF4F complex integrity during HCMV infection. Serum-starved confluent human fibroblasts were infected with HCMV at a multiplicity of 3 PFU/cell. […] (A) At 48 hpi the phosphorylation status of mTORC1 targets was assessed by Western blot assay by using antibodies to phosphorylated targets (4EBP1-PT^37/46 and rpS6-PS^235/6) and total proteins. Tubulin was assayed as a loading control. (B) Same as above (A) except that cells were harvested at the indicated times. (C and D) After mock infection (M) or infection with HCMV (WT) at a multiplicity of 3 PFU/cell, cultures were harvested at the indicated times. Equivalent amounts of protein from each sample were incubated with m^7GTP-Sepharose, and the isolated protein complexes were analyzed by Western blotting using the indicated antibodies to the eIF4F complex and 4EBP1. In all cases the results are representative of at least two independent experiments. lys, lysate.
HCMV infection induces mTORC1 activity, but the phosphorylation of mTORC1 targets is differentially sensitive to the mTORC1 inhibitor rapamycin. […] Total 4EBP1, rpS6, and tubulin levels were monitored to control for protein recovery. […]

Test [3] relates to MCMV. The test can be described thus: MCMV replication in MEFs, cell-free virus by TCID50. The settings on record: Torin1 250 nM. Format: cell-based, murine cytomegalovirus.
The test system of test [4] is rpS6. As to the kind of experiment: rpS6 phosphorylation in MCMV-infected MEFs, Western blot. Format: cell-based, mouse. As to conditions: 48 hpi; rapamycin 20 nM, Torin1 250 nM, LY294002 20 μM. Here is the method:
FIG. 5. […] Fresh serum-free medium containing drugs was added every other day. At the indicated times, cell-free supernatants were harvested, and the amount of virus in the supernatant was quantified by the TCID50 method. Error bars represent the standard errors of the means form two independent experiments performed in duplicate. […] At 48 hpi the phosphorylation state of the indicated mTORC1 targets was analyzed by a Western blot assay by using antibodies to phosphorylated targets (4EBP1-PT^37/46 and rpS6-PS^235/6) and total proteins. The results are representative of three independent experiments.
The identification of the functional roles of proteins in the mTOR signaling pathway has been facilitated by the generation of knockout mouse strains lacking individual mTOR components. For example, the availability of murine embryonic fibroblasts (MEFs) lacking the essential mTORC2 component Rictor led to the definitive identification of mTORC2 as the kinase complex responsible for the complete activation of Akt. We used murine cytomegalovirus (MCMV) and several MEF lines deficient for mTOR signaling pathway components to test for a possible contribution of mTORC2 to rapamycin-resistant phosphorylation events. […] Also as observed for HCMV (FIG. 4A), MCMV infection induced mTORC1 activity, as measured by the increased phosphorylation of rpS6. […]

Test [5] relates to HSV-1. As to the kind of experiment: HSV-1 replication in MEFs, TCID50. It is filed as cell-based, herpes simplex virus type 1. As to conditions: 72 hpi.

With `CCC(=O)N1CCN(c2ccc(-n3c(=O)ccc4cnc5ccc(-c6cnc7ccccc7c6)cc5c43)cc2C(F)(F)F)CC1` [Torin1], the “accumulation of early protein pUL44” value in test [1] was “inhibited the accumulation of IE1 and pUL44 to a limited extent”. Also, in test [1], the “accumulation of immediate-early protein IE1” value is “inhibited the accumulation of IE1 and pUL44 to a limited extent”. Besides, the “accumulation of late protein pUL99” value in test [1] is reported as “dramatically reduced”. Further, the “induction of rpS6 phosphorylation during HCMV infection” value in test [2] is “markedly inhibited”. For the same compound, the MCMV replication entry in test [3] (4EBP1-null MEFs, rapamycin 20 nM, 6 days post infection) is “no longer capable of inhibiting”; in test [3] (Akt1/Akt2-null MEFs) it was “Torin-sensitive”; in test [3] (Rictor-null MEFs, 6 days post infection), “effectively inhibited”; in test [3] (wild-type MEFs, 0.05 PFU/cell, rapamycin 20 nM) it was “inhibited MCMV replication”. Further, the “phosphorylation of rpS6 in MCMV-infected MEFs” value in test [4] is on record as “completely inhibited”. The “production of HSV-1” value in test [5] (4EBP1-null MEFs) is on record as “failed to inhibit”. The HSV-1 replication entry in test [5] (MEFs, 0.05 PFU/cell, rapamycin 20 nM, Torin1 250 nM) is listed as “inhibited both viruses”.
